Assay results from US9957289B2, “Compounds and methods for treating bacterial infections” (Washington University, priority 2013, dated 2018).
Converted amounts (≈) assume the structure as drawn. “Also recorded” adds a separate entry of the source.

Experiments:
[1] = Rat pharmacokinetics, IV and PO; assay type: in vivo
Description: Mannoside compounds FIM-4269, FIM-5240, FIM-5254, FIM-1CJ82 and FIM-1CJ66 (FIG. 3) were evaluated for pharmacokinetics in the rat. Mannosides were dose IV at 3 mg/kg and PO at 10 mg/kg. Urine and plasma were collected at 15 min, 30 min, 1 hour, 2 hours, 4 hours and 8 hours.

[2] = Mouse oral PK, mannoside concentration in urine; assay type: in vivo; conditions: mice, 50 mg/kg oral; for detectability in urine: samples at 1, 3, 6 and 8 hours
Description: Compounds ZFH-4269 (FIG. 6A), ZFH-5254 (FIG. 6B), ZFH5240 (FIG. 6C), and a Prodrug were dosed at 50 mg/kg and plasma and urine samples were taken at 1, 3, 6 and 8 hours after dosing. […] Taken together, the high oral bioavailability and in vivo efficacy observed in animal studies support mannosides as promising therapeutic candidates for UTI treatment/prevention.
For intraperitoneal dosing, 50 μl of a 2 mg/ml (5 mg/kg) or 4 mg/ml (10 mg/kg) solution of ZFH-2056 in PBS was injected into the peritoneal cavity of the mouse. For oral dosing, 100 μl of a 20 mg/ml (100 mg/kg) solution of ZFH-2056 in 8% DMSO was inoculated with a gavage needle into the mouse stomach. Urine was collected at 30 min, 1, 2, 3, 4, 6, and 8 h post-treatment. An equal volume of 10 μM internal standard (ZFH-2050) was added to the urine. Mannosides were extracted from the urine by loading on C18 columns (100 mg, Waters), washing with 30% methanol, and eluting with 60% methanol. Vacuum-concentrated eluates were analyzed using liquid chromatography-mass spectrometry system30 with a lower heated capillary temperature of 190° C. and a gradiert as follows: Solvent B (80% acetonitrile in 0.1% formic acid) was held constant at 5% for 5 minutes, increased to 44% B by 45 minutes, and then to a 95% B by 65 minutes. SRM mode quantification was performed with collision gas energy of 30% for the following MS/MS transitions (precursor m/z/product m/z): compound ZFH-2056, 447/285; compound ZFH-2050, 390/228. Absolute quantification was achieved by comparison to a calibration curve.

FimH [3] = target: T1, FimH (Escherichia coli, UniProt P08191); test: Hemagglutination inhibition (HAI) assay, guinea pig red blood cells; assay type: cell-based, E. coli; conditions: concentration inhibiting >90% hemagglutination of guinea pig red blood cells
T1 construct: endogenous in cells; host or cells: type 1 piliated uropathogenic E. coli (UPEC)
Description: FIG. 15 depicts the hemagglutination assay (HA) used to assess the compounds' ability to block FimH mediated binding. The HAI titer quantitatively measure the effect of inhibitors on blocking the FimH-mediated hemagglutination (HA) of guinea pig red blood cell infected with E. coli.
In some embodiments, activity of the compound is measured using hemmagglutination titer of guinea pig red blood cells. Hemagglutination of guinea pig red blood cells by type1 piliated UPEC is dependent upon FimH mannose binding ability and serial dilutions allow a quantitative analysis.
Hemagglutination assays for mannose-sensitive agglutination of guinea pig red blood cells were performed as previously described.

UTI89 [4] = test: Mouse model of acute UTI, bladder bacterial CFU after UTI89 infection; assay type: in vivo, Escherichia coli; conditions: for total bacterial CFUs in the bladder: mice, 6 hpi
Description: The efficacy of in vivo mannoside treatment was evaluated after orally dosing animals with 50 mg/kg of mannosides ZFH-4269 (FIG. 1A), ZFH-5254 (FIG. 1B) and ZFH-5240 (FIG. 1C) or DMSO or PBS 30 min prior to infecting with UTI89. At 6 hours post-infection (hpi) the bladders were removed and total bacterial CFUs were quantitated. […] Next, analogs of 254 were evaluated in the same mouse model of urinary tract infection. Animals were orally dosed with 25 mg/kg of mannosides ZFH-4269 (FIG. 2A), 1CJ68 (FIG. 2B) and 1CJ70 (FIG. 2C) in 10% cyclodextrin or 10% cyclodextrin 30 min prior to infecting with UT189.
The efficacy of in vivo mannoside treatment was evaluated after orally dosing animals with 25 mg/kg of mannosides ZFH269, Prodrug FIM-4269, ZFH-5254, and ZFH-5240 in 10% cyclodextrin or 10% cyclodextrin 30 min prior to infecting with UTI89. At 6 hours post-infection (hpi) the bladders were removed and total bacterial CFUs were quantitated. […] Next, several different prodrugs were evaluated in the same mouse model of urinary tract infection. Animals were orally dosed with 25 mg/kg of mannosides ZFH-4269, prodrug FIM-1233 (FIG. 8B), prodrug FIM-6123 (FIG. 8C) and prodrug 269 in 10% cyclodextrin or 10% cyclodextrin 30 min prior to infecting with UT189.
(§1) The FimH-mannose interaction was further investigated in an effort to develop potential ligand-based antagonists of UTIs. […] The non-reducing Man4 anchors into the mannose-binding pocket while the GlcNAc folds over Thr51 allowing specific interactions with a hydrophobic tyrosine gate. Heptyl mannoside mimics the GlcNAc tail of oligomannose-3 and extends it further to increase interactions outside the binding pocket resulting in high affinity binding (Kd=5 nM). Based on the high affinity of heptyl mannose for FimH, the ability of heptyl mannose to reduce bacterial infection in our mouse model of UTI was tested. First, biofilm formation as a surrogate for IBCs formed in the bladder was evaluated. […] Thus, UPEC strain UTI89 was incubated with heptyl mannose prior to inoculation into the bladders of mice.
Bacteria were grown under type 1 pili-inducing conditions (2×24 h at 37° C. statically in LB). The bacteria were harvested and resuspended to an OD600 of 0.5 in PBS. Eight-week-old C3H/HeN (Harlan) female mice were anesthetized by inhalation of isoflurane and infected via transurethral catheterization with […] of the bacterial suspension, resulting in 1-2×10^7 inoculum. At 6 hpi, mice were sacrificed by cervical dislocation under anesthesia and the bladders were immediately harvested and processed as described below. All animal studies using mice were approved by the Animal Studies Committee of Washington University (Animal Protocol Number 20100002).
Mannoside ZFH-2056 was administered either IP (5 mg/kg) or orally (100 mg/kg) 30 min prior to inoculation with UTI89. To enumerate the bacteria present, mice were sacrificed at 6 hpi and bladders were aseptically removed and homogenized in 1 ml PBS, serially diluted and plated onto LB agar plates. CFU was enumerated after 16 h of growth at 37° C.

UPEC biofilm formation = test: Biofilm assay; assay type: cell-based, Escherichia coli; conditions: 1 mM
Description: as §1
UTI89 was grown in LB broth in wells of PVC microtiter plates at 23° C. in the presence of individual mannosides at varying concentrations. After 48 h of growth, wells were rinsed with water and stained with crystal violet for quantification as described. For biofilm disruption activity in PVC plates, UTI89 was grown in LB broth in wells of PVC microtiter plates at 23° C. After 24 h of growth, mannoside was added and biofilms were grown for an additional 16 h. Wells were then rinsed, stained with crystal violet and quantified. […]

FimH [5] = target: T1, FimH; test: Binding affinity to FimH; set-up: species or system E. coli
Description: as §1

PBC-1 = test: Growth curve / MIC in TMP-SMZ, PBC-1; assay type: cell-based; conditions: Escherichia coli; PBC-1, growth curves in TMP-SMZ; read-out: Minimum Inhibition Concentration (MIC)
Description: (§2) Mice were IP treated with 6 30 min prior to inoculation with bacteria and compared to a control group of untreated animals. After inoculation with UTI89 or PBC-1, bacterial CFUs were quantified at 6 hpi.
Mannoside ZFH-2056 was added at 100 μM. Growth curves were performed in a 96-well plate at 37° C. with A600 readings taken every 30 min for 8 h.

UTI89 [6] = test: microbe, parasite or virus in culture; conditions: Escherichia coli
[7] = mice, after 3 days of 54 μg/ml TMP and 270 μg/ml SMZ in drinking water
Description: as §2
Water was changed daily for 3 days prior to inoculation with UTI89.

UTI89 [8] = test: UTI89 biofilm formation in urine under flow; assay type: cell-based, Escherichia coli; conditions: 1% in urine under flow
Description: To investigate the potential therapeutic effects of mannosides on CAUTI, we first assessed the inhibitory effects of methyl-a-D-mannopyranoside (methyl mannose), on UTI89 biofilm formation in urine under flow.

[9] = 25 mg/kg oral in 10% cyclodextrin 30 min prior to infecting with UTI89

T1 sequence (P08191 22-300): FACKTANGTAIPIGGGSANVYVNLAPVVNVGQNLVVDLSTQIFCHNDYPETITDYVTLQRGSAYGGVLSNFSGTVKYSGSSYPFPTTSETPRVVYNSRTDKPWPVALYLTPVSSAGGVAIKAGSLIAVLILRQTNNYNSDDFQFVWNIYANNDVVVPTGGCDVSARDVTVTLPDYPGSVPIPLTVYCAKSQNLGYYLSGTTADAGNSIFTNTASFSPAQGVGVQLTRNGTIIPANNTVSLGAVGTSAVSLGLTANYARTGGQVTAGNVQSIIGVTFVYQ

Structure (SMILES): CNC(=O)c1cccc(-c2ccc([C@@H](O)C3OC(CO)C(O)C(O)C3O)c(C)c2)c1 (single isomer, unassigned) [Example 18A]
- time plasma concentration remained above the limit of detection ([1]; IV 3 mg/kg): 2.5 h
- mean plasma concentration / PK after IV dose ([1]; IV 3 mg/kg, listed as FIM-5240, 3 mg/kg): the highest relative to the other 4 mannosides; also recorded: best PK
- pharmacokinetics after PO dose ([1]; PO 10 mg/kg): best pharmacokinetics relative to the other mannosides
- time at which plasma concentration fell below the limit of detection ([1]; PO 10 mg/kg): 2 h
- detectability in urine [2]: detectable in the urine out to 8 hours post-treatment
- level of concentration in the urine ([2]; within a 6-hour period): consistently maintained a high level of concentration in the urine
- HAI Titer EC>90 (FimH [3]): 0.031 µM
- total bacterial CFUs in the bladder (UTI89 [4]; [9]): drop in bacterial counts
- total bacterial CFUs in the bladder (UTI89 [4]; 50 mg/kg oral 30 min prior to infecting with UTI89, vs DMSO or PBS, listed as 240, 50 mg/kg): reduced bacterial titers in the bladder relative to DMSO and PBS
- total bacterial CFUs in the bladder (UTI89 [4]; 50 mg/kg oral 30 min prior to infecting with UTI89, vs DMSO or PBS, listed as ZFH-5240, 50 mg/kg): drop in bacterial counts

Structure (SMILES): Cc1cc(-c2ccc3cc[nH]c(=O)c3c2)ccc1O[C@H]1O[C@@H](CO)[C@@H](O)[C@H](O)[C@H]1O [Example 7, 7-[3-methyl-4-[(2R,3R,4S,5S,6S)-3,4,5-trihydroxy-6-(hydroxymethyl)tetrahydropyran-2-yl]oxy-phenyl]-2H-isoquinolin-1-one]
- detectability in urine [2]: detectable in the urine out to 8 hours post-treatment
- HAI Titer EC>90 (FimH [3]): 0.030 µM
- total bacterial CFUs in the bladder (UTI89 [4]; [9]): drop in bacterial counts
- total bacterial CFUs in the bladder (UTI89 [4]; 50 mg/kg oral 30 min prior to infecting with UTI89, vs DMSO or PBS, listed as 254, 50 mg/kg): reduced bacterial titers in the bladder relative to DMSO and PBS
- total bacterial CFUs in the bladder (UTI89 [4]; 50 mg/kg oral 30 min prior to infecting with UTI89, vs DMSO or PBS, listed as ZFH-5254, 50 mg/kg): drop in bacterial counts

Structure (SMILES): CCCCCCCO[C@H]1O[C@H](CO)[C@@H](O)[C@H](O)[C@@H]1O [Heptyl mannoside]
- UPEC biofilm formation in vitro (UPEC biofilm formation): inhibited UPEC biofilm formation
- Kd (FimH [5]): 5 nM
- virulence in mouse model of UTI (UTI89 [4]; UTI89 incubated with 5 mM compound prior to inoculation into bladders, 6 hours post-infection): significant attenuation of virulence

Structure (SMILES): Cc1cc(NS(=O)(=O)c2ccc(N)cc2)no1 [SMZ, Sulfamethoxazole]
- MIC (PBC-1): 1280 µg/mL (≈ 5050 µM)
- MIC (UTI89 [6]): 0.25 µg/mL (≈ 0.987 µM)

Structure (SMILES): COc1cc(Cc2cnc(N)nc2N)cc(OC)c1OC [TMP, Trimethoprim]
- MIC (PBC-1): 256 µg/mL (≈ 882 µM)
- MIC (UTI89 [6]): 0.05 µg/mL (≈ 0.172 µM)
- TMP concentration in urine [7]: 9.95 ± 4.36 mg/mL

Structure (SMILES): CNC(=O)c1cccc(-c2ccc(O[C@H]3O[C@@H](CO)[C@@H](O)[C@H](O)[C@H]3O)c(C)c2)c1 [ZFH-4269, N-methyl-3-[3-methyl-4-[(2R,3R,4S,5S,6S)-3,4,5-trihydroxy-6-(hydroxymethyl)tetrahydropyran-2-yl]oxy-phenyl]benzamide]
- detectability in urine [2]: detectable in the urine out to 8 hours post-treatment
- bladder titers (UTI89 [4]; acute UTI model (FIG. 27D)): significantly reduce bladder titers
- total bacterial CFUs in the bladder (UTI89 [4]; 25 mg/kg oral in 10% cyclodextrin 30 min prior to infecting with UTI89, 25 mg/kg): drop in bacterial counts
- total bacterial CFUs in the bladder (UTI89 [4]; 25 mg/kg oral in 10% cyclodextrin 30 min prior to infecting with UTI89, listed as ZFH269, 25 mg/kg): drop in bacterial counts; also recorded: most efficiently reduced bacterial titers in the bladder; also recorded: significantly reduced bacterial titers in the bladder
- total bacterial CFUs in the bladder (UTI89 [4]; 50 mg/kg oral 30 min prior to infecting with UTI89, vs DMSO or PBS, 50 mg/kg): drop in bacterial counts
- total bacterial CFUs in the bladder (UTI89 [4]; 50 mg/kg oral 30 min prior to infecting with UTI89, vs DMSO or PBS, listed as 269, 50 mg/kg): reduced bacterial titers in the bladder relative to DMSO and PBS

Structure (SMILES): CO[C@H]1O[C@H](CO)[C@@H](O)[C@H](O)[C@@H]1O [methyl mannose, methyl-a-D-mannopyranoside]
- biofilm-adherent cells (UTI89 [8]; p=0.0012 vs untreated): significantly reduced
- biofilm biomass (UTI89 [8]; p=0.0022 vs untreated): significantly reduced
